Measurements published in publication PMC12297423, “Dual α-amylase and α-glucosidase inhibition by 1,2,4-triazole derivatives for diabetes treatment” (Scientific Reports, 2025).
Where two headings read alike, the source gives them in different places.

What was measured:
[1] = test system: Saccharomyces cerevisiae α-glucosidase; test: In vitro α-glucosidase inhibition assay (BioVision kit, pNPG); assay type: biochemical; conditions: for %inh α-glucosidase: Table 2S
Method: Using BioVision’s α-Glucosidase Inhibitor Screening Kit (Colorimetric) (Catalogue #K938-100) at (OD: 410 nm), the in vitro α-glucosidase suppression effect for the designed 1,2,4-triazole derivatives 3, 4, 6, 8, 9, and 10 was carried out. The results were analyzed on a multi-well spectrophotometer (ELISA reader) using a 96-well microplate in compliance with the manufacturer’s instructions as previously described[49],[50]. The α-glucosidase inhibition assay was conducted using Saccharomyces cerevisiae α-glucosidase (0.5–1 U/mL in phosphate buffer, pH 6.8). Test compounds (63–1000 µg/mL) were pre-incubated with the enzyme at 37 °C for 10 min, followed by addition of pNPG (5 mM) and further incubation for 30 min. The reaction was stopped with 0.2 M Na2CO3, and absorbance was measured at 405 nm. […] Inhibition (%) was calculated as above, and IC50 values were derived from nonlinear regression analysis Table 2S.

[2] = molecular target: T1, porcine pancreatic α-amylase (Sus scrofa, UniProt P00690); test: In vitro α-amylase inhibition assay (BioVision kit / modified DNSA method); assay type: biochemical; conditions: for %inh α-amylase: Table 1S
T1 construct: purchased BioVision K482-100
T1 sequence (P00690 16-511): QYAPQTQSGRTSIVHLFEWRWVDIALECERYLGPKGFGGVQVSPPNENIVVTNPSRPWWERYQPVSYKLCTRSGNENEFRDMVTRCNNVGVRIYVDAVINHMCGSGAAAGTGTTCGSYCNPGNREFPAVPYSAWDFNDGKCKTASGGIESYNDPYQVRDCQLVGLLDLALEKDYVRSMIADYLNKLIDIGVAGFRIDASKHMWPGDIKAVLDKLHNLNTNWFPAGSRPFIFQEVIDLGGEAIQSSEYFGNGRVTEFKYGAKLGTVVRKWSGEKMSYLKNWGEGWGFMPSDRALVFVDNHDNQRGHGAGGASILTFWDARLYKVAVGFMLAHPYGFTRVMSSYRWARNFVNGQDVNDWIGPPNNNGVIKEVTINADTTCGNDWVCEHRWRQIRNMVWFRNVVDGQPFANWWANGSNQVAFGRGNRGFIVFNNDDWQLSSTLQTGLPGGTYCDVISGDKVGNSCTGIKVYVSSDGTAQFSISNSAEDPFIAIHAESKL
Method: The α-amylase inhibition assay was performed using a modified DNSA (3,5-dinitrosalicylic acid) method. Test compounds (dissolved in DMSO) were serially diluted (100, 10, 1, 0.1, and 0.01 µg/mL) and pre-incubated with porcine pancreatic α-amylase (0.5 U/mL in phosphate buffer, pH 6.8) at 37 °C for 10 min. Starch solution (1% w/v) was added, and the reaction proceeded for 30 min at 37 °C. The reaction was terminated by adding DNSA reagent, followed by heating at 85 °C for 10 min. Absorbance was measured at 540 nm using a microplate reader. […] The percentage inhibition was calculated as: [(Acontrol–Asample)/Acontrol] × 100, where Acontrol represents enzyme activity without inhibitor. IC50 values were determined from dose-response curves using GraphPad Prism. Kinetic parameters (KActivity) were derived from ∆RFU (Relative Fluorescence Units) and slope values Table 1S.

[3] = read-out: α-amylase inhibition IC50 (converted)
[4] = table printed in Fig. 9, read-out: α- Amylase IC50 (converted)

SMILES: C[C@H]1O[C@H](O[C@H]2[C@H](O)[C@@H](O)[C@@H](O[C@H]3[C@H](O)[C@@H](O)C(O)O[C@@H]3CO)O[C@@H]2CO)[C@H](O)[C@@H](O)[C@@H]1N[C@H]1C=C(CO)[C@@H](O)[C@H](O)[C@H]1O (some centres unmarked) [Acarbose, reference compound]
- %inh α-glucosidase ([1]; conc 63 (µg/mL)): 8.91%
- %inh α-glucosidase ([1]; conc 125 (µg/mL)): 28%
- %inh α-glucosidase ([1]; conc 250 (µg/mL)): 40.6%
- %inh α-glucosidase ([1]; conc 500 (µg/mL)): 58.6%
- %inh α-glucosidase ([1]; conc 1000 (µg/mL)): 76.8%

SMILES: CCOC(=O)c1ccc(NC(=O)CSc2nnc(Cc3ccc(OC)cc3)n2-c2ccccc2)cc1 [Compound 8, Ethyl 4-(2-((5-(4-methoxybenzyl)-4-phenyl-4H-1,2,4-triazol-3-yl)thio)acetamido)benzoate]
- α-glucosidase inhibition IC50 [1]: 0.67 ± 0.02 µg/mL
- %inh α-glucosidase ([1]; conc 63 (µg/mL)): 1.46%
- %inh α-glucosidase ([1]; conc 125 (µg/mL)): 5.94%
- %inh α-glucosidase ([1]; conc 250 (µg/mL)): 18.4%
- %inh α-glucosidase ([1]; conc 500 (µg/mL)): 38.9%
- %inh α-glucosidase ([1]; conc 1000 (µg/mL)): 67.3%
- %inh α-amylase ([2]; conc 0.01 (µg/mL)): 12%
- %inh α-amylase ([2]; conc 0.1 (µg/mL)): 29.3%
- %inh α-amylase ([2]; conc 1 (µg/mL)): 41.6%
- %inh α-amylase ([2]; conc 10 (µg/mL)): 63.1%
- %inh α-amylase ([2]; conc 100 (µg/mL)): 88.7%
- IC50 [2, 3]: 2890 nM
- IC50 [2, 4]: 2890 nM

SMILES: COc1ccc(Cc2nnc(SCC(=O)Nc3ccc(C(=O)O)cc3)n2-c2ccccc2)cc1 [Compound 6, 4-(2-((5-(4-methoxybenzyl)-4-phenyl-4H-1,2,4-triazol-3-yl)thio)acetamido)benzoic acid]
- α-glucosidase inhibition IC50 [1]: 0.83 ± 0.03 µg/mL
- %inh α-glucosidase ([1]; conc 63 (µg/mL)): 1.67%
- %inh α-glucosidase ([1]; conc 125 (µg/mL)): 4.01%
- %inh α-glucosidase ([1]; conc 250 (µg/mL)): 7.55%
- %inh α-glucosidase ([1]; conc 500 (µg/mL)): 28.9%
- %inh α-glucosidase ([1]; conc 1000 (µg/mL)): 69.2%
- %inh α-amylase ([2]; conc 0.01 (µg/mL)): 14.4%
- %inh α-amylase ([2]; conc 0.1 (µg/mL)): 19.9%
- %inh α-amylase ([2]; conc 1 (µg/mL)): 40.6%
- %inh α-amylase ([2]; conc 10 (µg/mL)): 74.1%
- %inh α-amylase ([2]; conc 100 (µg/mL)): 91.3%
- IC50 [2, 3]: 2610 nM
- IC50 [2, 4]: 2620 nM

SMILES: COc1ccc(Cc2nnc(SCC(=O)Nc3ccc(Br)cc3)n2-c2ccccc2)cc1 [Compound 10, N-(4-bromophenyl)-2-((5-(4-methoxybenzyl)-4-phenyl-4H-1,2,4-triazol-3-yl)thio)acetamide]
- α-glucosidase inhibition IC50 [1]: 0.31 ± 0.01 µg/mL
- %inh α-glucosidase ([1]; conc 63 (µg/mL)): 16.3%
- %inh α-glucosidase ([1]; conc 125 (µg/mL)): 25.1%
- %inh α-glucosidase ([1]; conc 250 (µg/mL)): 39.9%
- %inh α-glucosidase ([1]; conc 500 (µg/mL)): 58%
- %inh α-glucosidase ([1]; conc 1000 (µg/mL)): 82.8%
- %inh α-amylase ([2]; conc 0.01 (µg/mL)): 29.2%
- %inh α-amylase ([2]; conc 0.1 (µg/mL)): 41.2%
- %inh α-amylase ([2]; conc 1 (µg/mL)): 56.1%
- %inh α-amylase ([2]; conc 10 (µg/mL)): 77.6%
- %inh α-amylase ([2]; conc 100 (µg/mL)): 92.3%
- IC50 [2, 3]: 510 nM
- IC50 [2, 4]: 528 nM

SMILES: COc1ccc(Cc2nnc(SCC(=O)Nc3ccc(O)cc3)n2-c2ccccc2)cc1 [Compound 9, N-(4-hydroxyphenyl)-2-((5-(4-methoxybenzyl)-4-phenyl-4H-1,2,4-triazol-3-yl)thio)acetamide]
- α-glucosidase inhibition IC50 [1]: 0.77 ± 0.02 µg/mL
- %inh α-glucosidase ([1]; conc 63 (µg/mL)): 4.22%
- %inh α-glucosidase ([1]; conc 125 (µg/mL)): 7.76%
- %inh α-glucosidase ([1]; conc 250 (µg/mL)): 14%
- %inh α-glucosidase ([1]; conc 500 (µg/mL)): 31.9%
- %inh α-glucosidase ([1]; conc 1000 (µg/mL)): 68.2%
- %inh α-amylase ([2]; conc 0.01 (µg/mL)): 20.6%
- %inh α-amylase ([2]; conc 0.1 (µg/mL)): 35.3%
- %inh α-amylase ([2]; conc 1 (µg/mL)): 48.3%
- %inh α-amylase ([2]; conc 10 (µg/mL)): 73.3%
- %inh α-amylase ([2]; conc 100 (µg/mL)): 90%
- IC50 [2, 3]: 1410 nM
- IC50 [2, 4]: 1420 nM

SMILES: COc1ccc(Cc2nnc(SCC(=O)Nc3ccccc3)n2-c2ccccc2)cc1 [Compound 3, 2-((5-(4-methoxybenzyl)-4-phenyl-4H-1,2,4-triazol-3-yl)thio)-N-phenylacetamide]
- α-glucosidase inhibition IC50 [1]: 0.36 ± 0.01 µg/mL
- %inh α-glucosidase ([1]; conc 63 (µg/mL)): 15.7%
- %inh α-glucosidase ([1]; conc 125 (µg/mL)): 30%
- %inh α-glucosidase ([1]; conc 250 (µg/mL)): 40.9%
- %inh α-glucosidase ([1]; conc 500 (µg/mL)): 58.5%
- %inh α-glucosidase ([1]; conc 1000 (µg/mL)): 77%
- %inh α-amylase ([2]; conc 0.01 (µg/mL)): 19.9%
- %inh α-amylase ([2]; conc 0.1 (µg/mL)): 36.7%
- %inh α-amylase ([2]; conc 1 (µg/mL)): 58.4%
- %inh α-amylase ([2]; conc 10 (µg/mL)): 83.4%
- %inh α-amylase ([2]; conc 100 (µg/mL)): 92.3%
- IC50 [2, 3]: 859 nM
- IC50 [2, 4]: 876 nM

SMILES: COc1ccc(Cc2nnc(SCC(=O)Nc3ccc(C(C)=O)cc3)n2-c2ccccc2)cc1 [Compound 4, N-(4-acetylphenyl)-2-((5-(4-methoxybenzyl)-4-phenyl-4H-1,2,4-triazol-3-yl)thio)acetamide]
- α-glucosidase inhibition IC50 [1]: 0.27 ± 0.01 µg/mL
- %inh α-glucosidase ([1]; conc 63 (µg/mL)): 19.9%
- %inh α-glucosidase ([1]; conc 125 (µg/mL)): 36.6%
- %inh α-glucosidase ([1]; conc 250 (µg/mL)): 50.9%
- %inh α-glucosidase ([1]; conc 500 (µg/mL)): 63.6%
- %inh α-glucosidase ([1]; conc 1000 (µg/mL)): 82.4%
- %inh α-amylase ([2]; conc 0.01 (µg/mL)): 25.8%
- %inh α-amylase ([2]; conc 0.1 (µg/mL)): 44.6%
- %inh α-amylase ([2]; conc 1 (µg/mL)): 62.6%
- %inh α-amylase ([2]; conc 10 (µg/mL)): 85.7%
- %inh α-amylase ([2]; conc 100 (µg/mL)): 93.1%
- IC50 [2, 3]: 402 nM
- IC50 [2, 4]: 419 nM
